Measured values as given in paper PMC4106024 (Cancer biology & therapy, 2008).
“Also recorded” adds a separate entry of the source. Where two headings read alike, the source gives them in different places. *: point of attachment. Cbz = O=C(OCc1ccccc1)*; CH2F = FC*

How the values were obtained:
[1] = system: primary cells of mantle cell lymphoma; test: Cytotoxic effect on patient-derived primary cells, Trypan Blue cell counting; conditions: 350 nM or higher, 72 h
[2] = system: protein levels of Bcl-XL or Bim; test: Western blot of whole cell lysate for Bcl-XL and Bim; type: cell-based, human; conditions: concentrations up to 5 μM
[3] = Serum concentration in mice; type: in vivo; conditions: iv 80 mg/kg per day for five days
recombinant human Mcl-1 = recombinant human Mcl-1 (Homo sapiens, UniProt Q07820); test: Fluorescence polarization-based competitive binding assay
[4] = system: normal peripheral blood lymphocytes; test: Cytotoxic effect on normal lymphocytes, Trypan Blue cell counting; conditions: as high as 8 μM, 72 h
[5] = Stability test in solid state, spectral purity by HPLC-UV; type: physicochemical; conditions: amber glass container, room temperature, n = 2
[6] = system: primary cells of chronic lymphocytic leukemia; test: Cytotoxic effect on patient-derived primary cells, Trypan Blue cell counting; conditions: 350 nM or higher, 72 h
WSU-DLCL2 cells [7] = test: Acridine orange/ethidium bromide; type: cell-based, human; conditions: 4.0 μm
WSU-DLCL2 cells [8] = test: Cell growth inhibition by Trypan Blue cell counting and MTT assay; type: cell-based, human; conditions: WSU-DLCL2, 350 nM, Trypan Blue cell counting
[9] = Stability under stressed conditions, spectral purity by HPLC-UV; type: physicochemical; conditions: n = 2
WM cells = test: Cell growth inhibition, Trypan blue cell counting; type: cell-based, human; conditions: very low level of Bcl-2
PANC-1 cells = test: Cell growth inhibition, MTT assay; type: cell-based, human; conditions: PANC-1, very low level of Bcl-2
[10] = system: cleavage of caspase-3, caspase-9 and PARP; test: Western blot of apoptosis markers in WSU-DLCL2 cells; type: cell-based, human; conditions: WSU-DLCL2 whole cell lysate
WSU-DLCL2 xenografts = test: In vivo efficacy test in WSU-DLCL2 SCID mouse xenografts; set-up: species or system ICR-SCID mice; conditions: 600 mg/kg (120 mg/kg daily for 5 days), iv or po
[11] = system: non-tumor-bearing SCID mice; conditions: in vivo
FSCCL cells = test: Cell growth inhibition, Trypan blue cell counting; type: cell-based, human; conditions: high level of Bcl-2
DLCL2 cells = test: Growth inhibition of DLCL2 cells with caspase inhibitors and/or ApoG2; type: cell-based, human
Bcl-2 expressing B-cells = conditions: in vitro; cited from earlier work
[12] = system: normal female Balb/c mice; conditions: 120 μM/kg (approximately 62 mg/kg), five days daily po × 3 weeks; versus vehicle control or Apogossypol; cited from earlier work
Maximal tolerated dose = conditions: SCID, mouse, in vivo, iv, 40 mg/kg
[13] = system: non-tumor-bearing SCID mice; test: Maximal tolerated dose
[14] = in vivo, cited from earlier work
WSU-DLCL2 cells [15] = conditions: read-out: Estimated IC50; cited from earlier work

Sequence of recombinant human Mcl-1 (Q07820 whole entry): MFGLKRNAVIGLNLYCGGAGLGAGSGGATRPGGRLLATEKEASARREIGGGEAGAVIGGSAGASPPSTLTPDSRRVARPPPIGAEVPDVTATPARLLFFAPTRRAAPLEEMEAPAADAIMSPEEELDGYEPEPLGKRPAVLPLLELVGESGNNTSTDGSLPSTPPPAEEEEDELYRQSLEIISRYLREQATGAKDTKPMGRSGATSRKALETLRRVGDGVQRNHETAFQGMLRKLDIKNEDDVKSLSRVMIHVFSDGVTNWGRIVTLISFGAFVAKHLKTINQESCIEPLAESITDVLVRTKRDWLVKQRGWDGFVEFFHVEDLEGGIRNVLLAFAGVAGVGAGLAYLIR

Apogossypolone [ApoG2]
Cytotoxic effect [1]: significant cytotoxic effect | Protein levels of Bcl-XL or Bim [2]: did not affect significantly | Serum concentration (unbound) [3]: 5.0 µM | Ki (recombinant human Mcl-1; recombinant Mcl-1, n = 3): 25 ± 10 nM | Cytotoxicity on normal cells [4]: no major cytotoxicity; also recorded: no toxicity | Spectral purity in solid state ([5]; 0 h): 100.0 ± 0% | Spectral purity in solid state ([5]; 2 weeks): 100.0 ± 0.1% | Spectral purity in solid state ([5]; 3 weeks): 100.0 ± 0.1% | Spectral purity in solid state ([5]; 4 days): 99.7 ± 0.5% | Spectral purity in solid state ([5]; 7 days): 99.9 ± 0.2% | Cytotoxic effect [6]: significant cytotoxic effect | Apoptotic cells (AO/EtBr) (WSU-DLCL2 cells [7]; 24 h, control approximately 3%): 10% | Apoptotic cells (AO/EtBr) (WSU-DLCL2 cells [7]; 48 h, control approximately 4%): 17% | Apoptotic cells (AO/EtBr) (WSU-DLCL2 cells [7]; 72 h, control approximately 7%): 32% | Growth inhibition (WSU-DLCL2 cells [8]): approximately 50% | Spectral purity under stressed conditions ([9]; 0.1 N HCI, 5 mm): 96.5 ± 0.4% | Spectral purity under stressed conditions ([9]; 0.1 N NaOH, 5 mm): 96.3 ± 0.4% | Spectral purity under stressed conditions ([9]; 30% H2O2, 5 mm): 97.3 ± 0.2% | Spectral purity under stressed conditions ([9]; Normal light, 2 h): 95.2 ± 0.2% | Spectral purity under stressed conditions ([9]; Reference): 98.0 ± 0.4% | Growth inhibition (WM cells): induces growth inhibition | Growth inhibition (PANC-1 cells): induces growth inhibition | Cleavage of caspase-3, caspase-9 and PARP [10]: resulted in the activation of cleavages of caspase-3, caspase-9 and PARP | Growth inhibition of mouse xenografts, single agent (WSU-DLCL2 xenografts): comparable with that resulted from treatment with CHOP; also recorded: significant growth inhibition | H & E staining of sections of mouse liver, small and large intestines [11]: no abnormality | Growth inhibition (FSCCL cells): induces growth inhibition

Z-DEVD-FMK
Growth inhibition, caspase inhibitor alone (DLCL2 cells): no effects of growth inhibition

Cc1cc2c(C(C)C)c(O)c(O)c(C=O)c2c(O)c1-c1c(C)cc2c(C(C)C)c(O)c(O)c(C=O)c2c1O [gossypol]
medial lethal dose (LD50) (Bcl-2 expressing B-cells): 7.5 to 10 µM | Hepatotoxicity and gastrointestinal toxicity [12]: a great deal of hepatotoxicity and gastrointestinal toxicity | MTD at 3 days (Maximal tolerated dose): 120 mg/kg | Signs of toxicity at MTD ([13]; 120 mg/kg (3 x 40 mg/kg iv)): scruffy and rough hair as well as lethargic behavior | Weight loss at MTD ([13]; 120 mg/kg (3 x 40 mg/kg iv), data not shown): < 5% | Lethality ([13]; daily iv injection of 40 mg/kg for 4 days or 60 mg/kg for three days): lethal | H & E staining of sections of mouse liver, small and large intestines ([13]; versus vehicle control, data not shown): no abnormality | Bioavailability when given orally ([14]; po): 12.2–17.6%

Cbz-LEHD-CH2F
Growth inhibition, caspase inhibitor alone (DLCL2 cells): no effects of growth inhibition

Cc1cc2c(C(C)C)c(O)c(O)c(C=O)c2c(O)c1-c1c(C)cc2c(C(C)C)c(O)c(O)c(C=O)c2c1O (racemic) [Racemic gossypol, gossypol, reference compound]
Spectral purity in solid state ([5]; 0 h): 100.0 ± 0% | Spectral purity in solid state ([5]; 2 weeks): 99.9 ± 0.1% | Spectral purity in solid state ([5]; 3 weeks): 99.8 ± 0.2% | Spectral purity in solid state ([5]; 4 days): 99.4 ± 0.1% | Spectral purity in solid state ([5]; 7 days): 99.8 ± 0.1% | Spectral purity under stressed conditions ([9]; 0.1 N HCI, 5 mm): 15.8 ± 0.4% | Spectral purity under stressed conditions ([9]; 0.1 N NaOH, 5 mm): 10.4 ± 0.2% | Spectral purity under stressed conditions ([9]; 30% H2O2, 5 mm): 14.5 ± 0.4% | Spectral purity under stressed conditions ([9]; Normal light, 2 h): 92.3 ± 0.2% | Spectral purity under stressed conditions ([9]; Reference): 92.6 ± 0.6%

Cc1cc2c(C(C)C)c(O)c(O)cc2c(O)c1-c1c(C)cc2c(C(C)C)c(O)c(O)cc2c1O [Apogossypol]
medial lethal dose (LD50) (Bcl-2 expressing B-cells): 3 to 5 µM | Blood concentrations over time [14]: superior blood concentrations over time compared to gossypol

Cc1cc2c(C(C)C)c(O)c(O)c(C=O)c2c(O)c1-c1c(C)cc2c(C(C)C)c(O)c(O)c(C=O)c2c1O [(-)-gossypol, reference compound]
Ki (recombinant human Mcl-1): 170 ± 10 nM | IC50 (WSU-DLCL2 cells [15]): > 1000 nM

Cbz-Val-Ala-Asp-CH2F
Growth inhibition, caspase inhibitor alone (DLCL2 cells): no effects of growth inhibition
